{
  "source": "patent US9505763B2",
  "about": "“Cancer treatment using BMP inhibitor” (Vanderbilt University, priority 2011, dated 2016)",
  "key": {"[1]": {"molecular_target": "platelet-derived growth factor receptor-β (Homo sapiens, UniProt P09619)", "sequence (P09619 33-1106, species assumed)": "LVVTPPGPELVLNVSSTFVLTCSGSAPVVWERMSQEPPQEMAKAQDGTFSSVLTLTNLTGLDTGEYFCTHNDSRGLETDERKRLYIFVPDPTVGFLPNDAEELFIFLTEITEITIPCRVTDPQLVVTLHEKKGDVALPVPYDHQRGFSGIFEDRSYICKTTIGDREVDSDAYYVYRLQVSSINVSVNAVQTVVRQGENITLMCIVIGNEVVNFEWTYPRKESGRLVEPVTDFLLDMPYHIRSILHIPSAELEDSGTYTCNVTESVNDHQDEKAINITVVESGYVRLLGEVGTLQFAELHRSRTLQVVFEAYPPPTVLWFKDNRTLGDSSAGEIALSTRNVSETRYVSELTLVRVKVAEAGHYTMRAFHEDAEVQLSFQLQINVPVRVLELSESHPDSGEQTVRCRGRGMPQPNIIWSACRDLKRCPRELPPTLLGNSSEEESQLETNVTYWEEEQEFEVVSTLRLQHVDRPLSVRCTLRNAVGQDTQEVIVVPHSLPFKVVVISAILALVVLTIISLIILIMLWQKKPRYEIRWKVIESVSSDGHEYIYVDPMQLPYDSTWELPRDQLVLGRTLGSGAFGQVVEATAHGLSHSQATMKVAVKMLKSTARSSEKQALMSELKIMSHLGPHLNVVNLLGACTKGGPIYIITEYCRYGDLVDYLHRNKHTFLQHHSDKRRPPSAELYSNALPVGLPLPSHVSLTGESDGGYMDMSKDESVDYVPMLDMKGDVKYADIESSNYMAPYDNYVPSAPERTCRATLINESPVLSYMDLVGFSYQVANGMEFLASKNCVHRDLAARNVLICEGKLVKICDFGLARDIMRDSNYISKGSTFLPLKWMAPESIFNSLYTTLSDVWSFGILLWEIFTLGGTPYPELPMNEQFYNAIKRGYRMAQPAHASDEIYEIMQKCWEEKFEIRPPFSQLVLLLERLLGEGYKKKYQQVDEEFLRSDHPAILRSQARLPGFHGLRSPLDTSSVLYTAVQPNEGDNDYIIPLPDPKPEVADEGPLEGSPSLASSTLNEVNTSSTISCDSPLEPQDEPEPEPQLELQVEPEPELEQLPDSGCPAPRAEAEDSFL", "settings": "compared with Dorsomorphin and LDN; cited from earlier work"}, "[2]": {"molecular_target": "T1, constitutively active alk3 (ca-alk3) (Homo sapiens, UniProt P36894, Q233D)", "T1 construct": "expressed in transfected cells; host or cells: H1299", "T1 sequence (P36894 24-532 Q233D)": "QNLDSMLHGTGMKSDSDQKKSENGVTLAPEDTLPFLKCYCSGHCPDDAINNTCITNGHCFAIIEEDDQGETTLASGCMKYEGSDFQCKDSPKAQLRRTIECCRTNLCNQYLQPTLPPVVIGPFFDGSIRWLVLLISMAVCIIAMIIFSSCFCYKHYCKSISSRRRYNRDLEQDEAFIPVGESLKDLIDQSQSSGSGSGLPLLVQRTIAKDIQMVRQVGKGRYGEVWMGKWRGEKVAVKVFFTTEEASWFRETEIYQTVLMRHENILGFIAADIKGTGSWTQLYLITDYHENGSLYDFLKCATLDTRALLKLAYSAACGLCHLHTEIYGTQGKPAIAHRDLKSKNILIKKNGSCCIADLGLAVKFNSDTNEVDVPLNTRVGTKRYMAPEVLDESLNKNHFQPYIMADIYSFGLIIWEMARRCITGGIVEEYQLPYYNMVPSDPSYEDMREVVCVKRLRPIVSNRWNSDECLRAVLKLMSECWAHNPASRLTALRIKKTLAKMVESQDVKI", "assay": "BRE-luciferase with constitutively active alk3 in H1299 cells", "assay_type": "cell-based", "settings": "1 μM antagonist", "experimental": "(§1) To assess the effects of antagonists on a specific type I BMP receptor, 2 μg of constitutively active ca-alk3 and ca-alk6 expression vectors were co-transfected with the BRE-luciferase reporter into H1299 cells with Nucleofector II. Control cells were co-transfected with the pcDNA3 expression vector. After 48 hours the cells were treated with DMSO or a BMP receptor antagonist for 48 hours and luminescence was measured."}, "[3]": {"system": "Id1 and Id3 protein", "assay": "Western blot for Id1 and Id3", "assay_type": "cell-based", "experimental": "(§2) Western Blot Analysis. Total cellular protein was prepared using RIPA buffer containing a protease inhibitor cocktail and protein concentration was measured using the BCA assay as described. In brief, protein was analyzed by SDS-PAGE, transferred to nitrocellulose (Schleicher and Schuell, Keene, N.H.). After blocking, the blots were incubated overnight at 4° C. with the appropriate primary antibody in Tris-buffered saline with 1% Tween (TBST) and 5% non-fat milk. Secondary antibodies were applied for 1 hour at room temperature. Specific proteins were detected using the enhanced chemiluminescence system (Amersham, Arlington Heights, Ill.). The primary antibodies that were used were rabbit monoclonal anti-pSmad 1/5/8 (Cell signaling Technology, Danvers Mass.) rabbit anti-actin, an affinity isolated antigen specific antibody (Sigma, Saint Louis, Mo.), rabbit monoclonal anti-Id1 and rabbit monoclonal anti-Id3 (Calbioreagents, San Mateo, Calif.)."}, "[4]": {"molecular_target": "T2, TGFβ receptor alk5 (Homo sapiens, UniProt P36897)", "T2 sequence (P36897 34-503)": "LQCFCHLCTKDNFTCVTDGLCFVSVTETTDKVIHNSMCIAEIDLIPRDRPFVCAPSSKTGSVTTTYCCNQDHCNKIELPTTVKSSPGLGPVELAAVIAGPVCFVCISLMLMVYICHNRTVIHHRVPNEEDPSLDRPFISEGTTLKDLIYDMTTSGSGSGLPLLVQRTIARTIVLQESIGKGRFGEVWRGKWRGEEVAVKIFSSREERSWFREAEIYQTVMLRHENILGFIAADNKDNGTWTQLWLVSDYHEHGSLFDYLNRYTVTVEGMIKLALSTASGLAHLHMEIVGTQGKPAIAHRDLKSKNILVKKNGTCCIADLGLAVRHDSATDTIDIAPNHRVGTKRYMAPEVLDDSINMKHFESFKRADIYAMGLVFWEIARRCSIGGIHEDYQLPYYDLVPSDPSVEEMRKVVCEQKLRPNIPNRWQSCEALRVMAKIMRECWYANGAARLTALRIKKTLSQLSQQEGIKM", "settings": "compared with Dorsomorphin and LDN; cited from earlier work"}, "[5]": {"system": "A549 cells", "assay": "Clonogenic growth assay", "assay_type": "cell-based", "settings": "1 μM, 2 weeks", "experimental": "(§3) Clonigenic Growth Assay. A549 and H1299 cells were plated into 6 well plates with 500 cells per well. The next day the cells were treated with DMSO or a BMP receptor antagonist for 2 weeks. The colonies were stained with Diff-Quick (IMEB Inc. San Marcos, Calif.) and the total number of colonies per well counted."}, "[6]": {"system": "H1299 cells", "assay": "Clonogenic growth assay", "assay_type": "cell-based", "settings": "1 μM, 2 weeks", "experimental": "as §3"}, "[7]": {"system": "phosphorylated Smad 1/5/8", "assay": "Western blot for phosphorylated Smad 1/5/8", "assay_type": "cell-based", "experimental": "as §2"}, "[8]": {"system": "H1299 cells", "assay": "Amine-reactive fluorescent dye (LIVE/DEAD) flow cytometry", "assay_type": "cell-based", "experimental": "Cell death was also determined using the LIVE/DEAD fixable dead cell stain kit as per manufacturer's instructions (Life Technologies, L-23101). This assay employs an amine-reactive fluorescent dye, which in compromised membranes the dye reacts with free amines on the cell interior in dead cells. H1299 cells were treated with DMH2 for 48 hours and the percentage of dead cells then detected by flow cytometry."}, "[9]": {"system": "A549 cells", "assay": "Ethidium bromide uptake cell death assay", "assay_type": "cell-based", "settings": "48 hours, 10 μM Dorsomorphin or 1 μM selective antagonist", "experimental": "Cell Death Assay: A549 and H1299 cells were plated in 6 well plates with 10^6 cells per well. Cells were treated with DMSO or a BMP receptor antagonist for 12 and 48 hours. Adherent and floating cells were harvested and incubated with 0.1 mg/ml of ethidium bromide. Immediately after staining approximately 100 cells were counted and the percentage of cells that took up ethidium bromide was determined."}, "[10]": {"system": "constitutively active alk6 (ca-alk6)", "assay": "BRE-luciferase with constitutively active alk6 in H1299 cells", "assay_type": "cell-based", "settings": "1 μM antagonist", "experimental": "as §1"}, "[11]": {"molecular_target": "T3, alk2 (Mus musculus, UniProt P37172)", "T3 construct": "host or cells: C2C12", "T3 sequence (P37172 21-509)": "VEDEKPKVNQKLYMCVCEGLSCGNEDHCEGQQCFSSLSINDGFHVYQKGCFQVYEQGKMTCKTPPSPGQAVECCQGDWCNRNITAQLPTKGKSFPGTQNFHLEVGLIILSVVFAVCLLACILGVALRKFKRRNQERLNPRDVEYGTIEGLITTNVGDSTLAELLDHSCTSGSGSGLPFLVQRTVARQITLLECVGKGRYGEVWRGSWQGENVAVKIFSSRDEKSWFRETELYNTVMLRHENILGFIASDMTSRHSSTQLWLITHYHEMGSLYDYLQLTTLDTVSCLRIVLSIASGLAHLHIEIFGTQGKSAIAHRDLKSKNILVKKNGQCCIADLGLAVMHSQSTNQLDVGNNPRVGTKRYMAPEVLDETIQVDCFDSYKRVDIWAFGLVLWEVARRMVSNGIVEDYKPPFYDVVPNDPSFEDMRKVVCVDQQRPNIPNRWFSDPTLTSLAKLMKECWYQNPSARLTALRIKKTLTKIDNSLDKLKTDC", "settings": "reported [26]; cited from earlier work"}, "[12]": {"system": "AMP kinase", "settings": "compared with Dorsomorphin and LDN; cited from earlier work"}, "[13]": {"molecular_target": "VEGF II (Homo sapiens, UniProt P35968)", "sequence (P35968 20-1356)": "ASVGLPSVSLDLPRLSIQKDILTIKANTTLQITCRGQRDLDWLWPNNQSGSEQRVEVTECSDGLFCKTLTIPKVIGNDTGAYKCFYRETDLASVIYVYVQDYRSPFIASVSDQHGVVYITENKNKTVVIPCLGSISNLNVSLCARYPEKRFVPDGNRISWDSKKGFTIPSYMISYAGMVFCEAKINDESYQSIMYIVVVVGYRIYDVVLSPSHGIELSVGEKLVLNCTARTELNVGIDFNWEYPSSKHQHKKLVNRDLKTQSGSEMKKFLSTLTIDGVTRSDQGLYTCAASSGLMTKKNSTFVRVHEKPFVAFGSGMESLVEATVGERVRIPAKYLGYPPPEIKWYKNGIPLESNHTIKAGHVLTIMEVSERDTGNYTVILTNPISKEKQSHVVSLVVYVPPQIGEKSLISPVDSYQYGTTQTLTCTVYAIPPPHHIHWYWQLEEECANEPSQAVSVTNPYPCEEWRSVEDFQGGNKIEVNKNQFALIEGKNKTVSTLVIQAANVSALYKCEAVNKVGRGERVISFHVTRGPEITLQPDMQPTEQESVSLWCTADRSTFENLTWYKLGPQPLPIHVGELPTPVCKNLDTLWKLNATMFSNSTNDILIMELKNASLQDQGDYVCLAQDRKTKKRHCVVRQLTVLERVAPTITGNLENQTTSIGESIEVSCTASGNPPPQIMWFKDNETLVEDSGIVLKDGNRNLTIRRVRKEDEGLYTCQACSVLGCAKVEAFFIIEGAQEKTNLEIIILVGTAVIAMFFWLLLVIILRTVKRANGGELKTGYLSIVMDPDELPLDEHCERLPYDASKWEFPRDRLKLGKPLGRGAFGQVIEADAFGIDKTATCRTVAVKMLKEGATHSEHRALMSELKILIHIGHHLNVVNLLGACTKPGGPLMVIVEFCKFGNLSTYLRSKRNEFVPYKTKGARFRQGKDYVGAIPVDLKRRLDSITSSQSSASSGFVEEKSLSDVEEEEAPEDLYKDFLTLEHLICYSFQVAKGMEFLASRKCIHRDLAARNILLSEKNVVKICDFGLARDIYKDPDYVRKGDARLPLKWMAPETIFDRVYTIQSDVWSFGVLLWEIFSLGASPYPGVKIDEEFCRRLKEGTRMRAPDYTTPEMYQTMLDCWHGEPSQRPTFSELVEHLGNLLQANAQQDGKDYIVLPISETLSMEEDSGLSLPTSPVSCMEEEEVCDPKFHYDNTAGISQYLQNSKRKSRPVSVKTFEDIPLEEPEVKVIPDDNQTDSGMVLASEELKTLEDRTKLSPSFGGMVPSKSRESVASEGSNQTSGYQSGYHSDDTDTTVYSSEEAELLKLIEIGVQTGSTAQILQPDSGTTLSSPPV", "settings": "compared with Dorsomorphin and LDN; cited from earlier work"}},
  "note": "“Also recorded” adds a separate entry of the source.",
  "data": [
    {"smiles": "CN(C)CCCOc1ccc(-c2cnc3c(-c4ccnc5ccccc45)cnn3c2)cc1", "note": "[DMH2]", "values": [
      {"measurement": "activity for platelet-derived growth factor receptor-β (comparison)", "setting": "[1]", "result": "less activity"},
      {"measurement": "inhibition of ca-alk3 activity (BRE-luciferase)", "setting": "[2]", "result": "greater reduction of alk3 activity than DMH1 and LDN; also recorded: significant inhibition"},
      {"measurement": "protein levels of Id1 and Id3", "setting": "[3]; A549 and H1299 cells", "result": "decrease"},
      {"measurement": "reduction of Id1 protein expression (comparison)", "setting": "[3]; H1299 and A549 cells, 1 μM", "result": "greater reduction of Id1 in H1299 cells compared to A549 cells; also recorded: greater reduction of Id1 protein expression than DMH1"},
      {"measurement": "activity for TGFβ receptor alk5 (comparison)", "setting": "[4]", "result": "less activity"},
      {"measurement": "clonogenic growth", "setting": "[5]", "result": "inhibited more by DMH2 and LDN than DMH1"},
      {"measurement": "clonogenic growth", "setting": "[6]", "result": "inhibited more by DMH2 and LDN than DMH1"},
      {"measurement": "phosphorylated Smad 1/5/8 expression", "setting": "[7]; A549 cells", "result": "decreases"},
      {"measurement": "level of phosphorylated Smad 1/5/8 expression", "setting": "[7]; lung cancer cell lines (H1299, A549)", "result": "decreased"},
      {"measurement": "cell death (amine-reactive fluorescent dye)", "setting": "[8]", "result": "induced cell death"},
      {"measurement": "cell death (percentage of cells taking up ethidium bromide)", "setting": "[9]", "result": "significant increase in cell death"},
      {"measurement": "inhibition of ca-alk6 activity (BRE-luciferase)", "setting": "[10]", "result": "more inhibition of alk6 than DMH1 and LDN"},
      {"measurement": "inhibition of alk2 activity", "setting": "[11]", "result": "inhibit"},
      {"measurement": "activity for AMP kinase (comparison)", "setting": "[12]", "result": "less activity"},
      {"measurement": "activity for VEGF II (comparison)", "setting": "[13]", "result": "less activity"}
    ]}
  ]
}
